Experimental data from the supplement of paper PMC9938120.

Legend:
Test in all cases: drug sensitivity score (DSS3, normalised partial AUC of % inhibition dose-response) (DSS (score)); higher = more sensitive (stronger inhibition of viability); extreme values may be limits of the assay
FMOC06 = patient-derived mucinous ovarian cancer cells; conditions: 72 h; library: FO5A; assay format: 2D, 384-well, CellTiter-Glo
Outline: (§1)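 Patient-derived ovarian cancer cells (early passage, under 10) were dispensed onto 384-well flat clear-bottom plates pre-plated with compounds at five concentrations covering a 10,000-fold range. Plates were incubated 72 h at 37 °C, 5% CO2, and viability was read with CellTiter-Glo. Data were processed in Breeze. The drug sensitivity score (DSS3) is a partial area under the percent-inhibition dose-response curve, divided by the log of the upper asymptote; higher means more sensitive.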

FMOC14 = patient-derived high-grade serous ovarian cancer cells; conditions: 72 h; library: FO5A; assay format: 2D, 384-well, CellTiter-Glo
Outline: as §1

FMOC02_3 = patient-derived low-grade serous ovarian cancer cells; conditions: 72 h; library: FO5A; assay format: 2D, 384-well, CellTiter-Glo
Outline: as §1

FMOC25_2 = patient-derived low-grade serous ovarian cancer cells; conditions: 72 h; library: FO5A; assay format: 2D, 384-well, CellTiter-Glo
Outline: as §1

FMOC02_2 = patient-derived low-grade serous ovarian cancer cells; conditions: 72 h; library: FO5A; assay format: 2D, 384-well, CellTiter-Glo
Outline: as §1

FMOC25_1 = patient-derived low-grade serous ovarian cancer cells; conditions: 72 h; library: FO4B; assay format: 2D, 384-well, CellTiter-Glo
Outline: as §1

FMOC24 = patient-derived high-grade serous ovarian cancer cells; conditions: 72 h; library: FO5A; assay format: 2D, 384-well, CellTiter-Glo
Outline: as §1

FMOC03 = patient-derived mucinous ovarian cancer cells; conditions: 72 h; library: FO5A; assay format: 2D, 384-well, CellTiter-Glo
Outline: as §1

FMOC22 = patient-derived mucinous ovarian cancer cells; conditions: 72 h; library: FO5A; assay format: 2D, 384-well, CellTiter-Glo
Outline: as §1

FMOC09 = patient-derived high-grade serous ovarian cancer cells; conditions: 72 h; library: FO5A; assay format: 2D, 384-well, CellTiter-Glo
Outline: as §1

Structure (SMILES)	drug sensitivity score (FMOC06)	drug sensitivity score (FMOC14)	drug sensitivity score (FMOC02_3)	drug sensitivity score (FMOC25_2)	drug sensitivity score (FMOC02_2)	drug sensitivity score (FMOC25_1)	drug sensitivity score (FMOC24)	drug sensitivity score (FMOC03)	drug sensitivity score (FMOC22)	drug sensitivity score (FMOC09)
C=CC(=O)Nc1cc(Nc2nccc(-c3cn(C)c4ccccc34)n2)c(OC)cc1N(C)CCN(C)C [Osimertinib]	4	6.1	12	11.2	15	7.3	4.35	11.7	3.3	11.3
O=C(O)C(=O)O.[NH-][C@@H]1CCCC[C@H]1[NH-].[Pt+2] [Oxaliplatin]	7	6.8	9.9	5.7	7.5	8.9	11.3	8.8	9.6	14.9
COc1ccccc1S(=O)(=O)Nc1ccc2c(c1)CN(C)C(=O)N2 [PFI-1]	3.6	1.2	7.1	5.7	5.3	1.1	3.2	2.9	3.6	3.2
CN1CCN(c2cc(C(=O)Nc3ccc4c(c3)-c3c(c(C(N)=O)nn3-c3ccc(F)cc3)CC4)c(Cl)cn2)CC1 [PHA 408]	4.6	4	6.8	11	4	0.6	9	5.2	4.6	4.8
COc1cc(Br)c(Nc2nc(-c3c(C)nc4ncccn34)cs2)c(Br)c1 [PTC-209]	3.5	2.7	4.6	8.4	5.5	6.3	1.35	4.6	4.5	6
CC(=O)O[C@H]1C(=O)[C@@]2(C)[C@H]([C@H](OC(=O)c3ccccc3)[C@]3(O)C[C@H](OC(=O)[C@H](O)[C@@H](NC(=O)c4ccccc4)c4ccccc4)C(C)=C1C3(C)C)[C@]1(OC(C)=O)CO[C@@H]1C[C@@H]2O [Paclitaxel]	10.1	0.4	17	16.7	8.7	6.7	0.1	11.9	12.5	13.6
C1=N/C2=N/c3ccc(OCCN4CCCC4)c(c3)COC/C=C/COCc3cccc(c3)C(=C1)N2 [Pacritinib]	7.6	5.2	15.2	15.2	10.1	7.8	7.95	6.7	6.2	5.5
Cc1[nH]c2ccccc2c1CCNCc1ccc(/C=C/C(=O)NO)cc1 [Panobinostat]	12.8	15.4	10.7	15.2	12.6	11.2	13.3	11.1	9.1	5.5
Nc1nc2[nH]cc(CCc3ccc(C(=O)N[C@@H](CCC(=O)O)C(=O)O)cc3)c2c(=O)[nH]1 [Pemetrexed]	0.3	0	0	3.3	0	0	1.55	2.2	3.4	0
NS(=O)(=O)OC[C@@H]1C[C@@H](n2ccc3c(N[C@H]4CCc5ccccc54)ncnc32)C[C@@H]1O [Pevonedistat]	4.1	0.3	10.6	20.5	10.2	11.5	10.7	8.2	12.6	10.1
CS(=O)(=O)N1CCN(Cc2cc3nc(-c4cccc5[nH]ncc45)nc(N4CCOCC4)c3s2)CC1 [Pictilisib]	10.6	9.2	16.1	14.3	16.8	12.9	5.35	9.4	5.1	11.9
CO[C@H](C(=O)[C@@H](O)[C@@H](C)O)[C@@H]1Cc2cc3cc(O[C@H]4C[C@@H](O[C@@H]5C[C@@H](O)[C@H](O)[C@@H](C)O5)[C@H](O)[C@@H](C)O4)c(C)c(O)c3c(O)c2C(=O)[C@H]1O[C@H]1C[C@@H](O[C@@H]2C[C@@H](O)[C@@H](O[C@@H]3C[C@](C)(O)[C@H](O)[C@@H](C)O3)[C@@H](C)O2)[C@H](O)[C@@H](C)O1 [Plicamycin]	6.2	10.1	16.7	29.1	9	7	9	4.6	5.1	2.6
C=CC(=O)N1CCC(Oc2cc3c(Nc4ccc(Cl)c(Cl)c4F)ncnc3cc2OC)CC1 [Poziotinib]	6.1	6.5	21.8	20.3	24.2	10.5	2.1	24.6	0.8	16.7
CCCCc1nc2cc(/C=C/C(=O)NO)ccc2n1CCN(CC)CC [Pracinostat]	12.7	12.4	13.3	10.7	13.3	11.6	14.8	12.3	8.7	5.8
COc1cccc(OCCCN)c1-c1cc(Nc2cnc(C#N)cn2)n[nH]1 [Prexasertib]	12.6	22.6	18.6	19.1	15.1	15.3	24.7	11.8	19.6	19.5
Cn1cc(CNCC2CCN(c3ncc(C(=O)NO)cn3)CC2)c2ccccc21 [Quisinostat]	9.4	10.7	10.8	11.2	10.9	9.9	13.6	10.3	8.1	4.8
